Experimental data taken from PMC8795149, “Characterization of a novel non-steroidal glucocorticoid receptor agonist optimized for topical treatment” (Scientific Reports, 2022).
“And” between values parts separate entries of the source, which are not always exact repeats. Equal values may be shown once.

How the values were obtained:
HPA axis = system: HPA axis; parameters: method as in PMID 3553247; conditions: topical; cited from earlier work
[1] = system: FKBP5 mRNA (GR target engagement); assay: Minipig skin FKBP5 gene expression after 4 weeks topical treatment; format: in vivo; conditions: minipigs, LEO 134310 2%, CP 0.05%, BMV 0.1%
Description: Each animal was treated for 6 h daily over 28 days with 25 µL of the following topical formulations on an application area of 2.5 cm × 2.5 cm: Vehicle (transcutol:acetone (1:9) with 10% hydroxy-propyl-cellulose); Dermovate cream (CP 0.05%), CP 0.05% in vehicle; Betnovate cream (BMV 0.1%); BMV 0.1% in vehicle; LEO 134310 2% in vehicle. One test field on each animal remained untreated.
RNA was extracted from the biopsies and qPCR was performed using customized TaqMan gene expression assays for FKBP5 and TBP (reference gene).

[2] = system: PPAR-alpha, LXR-beta, RAR-alpha, RXR-alpha, ER-alpha, PR, AR, ER-beta and TR; assay: Selectivity screening on nuclear receptors, radioligand binding (CEREP); parameters: species or system human; conditions: 10µM; greater than 25% displacement considered significant
Description: Selectivity screening on nuclear receptors – Studies were performed at CEREP using their proprietary assays for human PPARalpha, LXRbeta, RARalpha, RXRalpha, ERalpha, ERbeta, progesterone receptor, androgen receptor and thyroid hormone receptor employing specific, radiolabeled agonist ligands. Interactions leading to greater than 25% displacement of the radiolabeled agonist ligand were considered significant. Concentrations of LEO 134310 and LEO 134998 were 10µM.

[3] = Hepatocyte stability (minipig); format: in vitro ADME; conditions: predicted hepatic clearance, well stirred model
Description: (§1) Compounds (1.0 µM) were incubated in duplicates with rat, dog, minipig or human hepatocytes (1.0 million cells/mL) in phosphate buffer, in 96-well plates for 120 min (37 °C). Reactions were stopped by addition of cold acetonitrile, at 0, 10, 30, 60, and 120 min, and dispensed into cold acetonitrile to stop the reactions. Plates were centrifuged for 30 min and samples were analysed using liquid chromatography coupled to a time-of-flight mass spectrometer. Compound depletion over time was used to estimate the elimination rate constant, from which the apparent intrinsic clearance (CLapp), and half-life (t½), were calculated.

[4] = Hepatocyte stability (human); format: in vitro ADME; conditions: predicted hepatic clearance, well stirred model
Description: as §1

[5] = Stability in whole blood (rat); format: in vitro ADME; conditions: 0.1 µM, 37 °C
Description: (§2) Compounds were incubated in diluted fresh rat, dog, minipig or human whole blood (heparin stabilized, 50% blood and 50% phosphate buffer with 1% bovine serum albumin) for 120 min at 0.1 µM, at 37 °C and the half-lives were determined. Samples were taken at 0, 15, 30, 60 and 120 min, and reactions were terminated by addition of acetonitrile containing analytical internal standard (IS). Test compound depletion was determined using time-of-flight mass spectrometry in positive ion mode (TOF–MS; AB Sciex API5600). Elimination rate constants (k) were calculated from peak areas and the half-lives was determined (t½ = ln2/k).

[6] = Stability in whole blood (dog); format: in vitro ADME; conditions: 0.1 µM, 37 °C
Description: as §2

[7] = Stability in whole blood (minipig); format: in vitro ADME; conditions: 0.1 µM, 37 °C
Description: as §2

[8] = TPA mouse model, blood concentration after topical dose; format: in vivo; conditions: blood concentrations at 2 h after the last topical dose
Description: Treatments were performed by topical application of either vehicle (90% acetone, 10% transcutol), Treatments were applied twice daily on days 8, 9, 10, and once on day 11 (20–10 μL to each side of ear) with at least 5 h between the first and second treatment. TPA challenge on days 8 and 10 was performed at least 1 h after the first treatment. On day 11, animals were sacrificed 2 h after the last dosing. Blood was sampled by cardiac puncture from animals anaesthetized with isoflurane. Thereafter, ear biopsies were taken with a biopsy punch (8 mm diameter), weighed and stored at – 80 °C. Plasma osteocalcin levels were analyzed by EIA (rat-MID, IDS, UK). Effective inhibitory doses (ID50) were determined from a sigmoid I(max) model in Phoenix64, Pharsight, Certara. Therapeutic Index (TI) was calculated either as ID50 for spleen weight reduction or ID50 for blood osteocalcin concentrations, divided by ID50 for ear weight reduction.

[9] = Hepatocyte stability (dog); format: in vitro ADME; conditions: predicted hepatic clearance, well stirred model
Description: as §1

[10] = Stability in whole blood (human); format: in vitro ADME; conditions: 0.1 µM, 37 °C
Description: Anonymized human blood samples were obtained from healthy volunteer donors upon informed written consent and in accordance with national legislation.
as §2

[11] = In vivo pharmacokinetics in dog, i.v.
Description: The pharmacokinetic profile of LEO 134310 was determined in rat (male Sprague Dawley) and dog (female Beagle) after intravenous (i.v.) injection at 1 mg/kg. LEO 134310 was administered in isotonic cyclodextrin solution at 0.5 mg/mL (0.1% Citrate buffer pH 4, 20% hydroxy-propyl-β-cyclodextrin in 0.2% NaCl). The i.v. dose was given as a bolus in rats and as a slow injection over 2 min in dogs. The dosing volume was 2 mL/kg. Blood was immediately diluted after sampling in an inhibitory cocktail containing acetylcholinesterase inhibitor Dichlorvos [1 mg/mL in an 8 mg/mL K2EDTA solution in phosphate buffer (PBS)] and samples were stored at − 80 °C until analysis. Samples were analyzed by LC–MS/MS using an API 5500/API 6500 QTRAP mass spectrometer. Pharmacokinetic parameters were derived from a non-compartment model in Phoenix64 (Pharsight, Certara).

[12] = system: 8 ion channels, 40 kinases, 2 phosphatases, up to 163 G-protein coupled receptors; assay: Off-target panels (Eurofins IonChannelProfiler, KinaseProfiler, GPCRProfiler); conditions: 10 µM

Row | Structure (SMILES) | Effect on morning plasma cortisol (HPA axis) | FKBP5 gene expression induced in skin [1] | Interaction with nine nuclear hormone receptors in specific binding assays [2] | In vitro (hepatocytes) CLH [3] | In vitro (hepatocytes) CLH [4] | In vitro (blood) half-life [5] | In vitro (blood) half-life [6] | In vitro (blood) half-life [7] | Higher dose needed to achieve systemic exposure comparable to BMV [8] [fold] | Higher dose needed to achieve systemic exposure comparable to CP [8] [fold] | In vitro (hepatocytes) CLH [9] | In vitro (blood) half-life [10] | In vivo clearance relative to liver blood flow [11] [fold] | In vivo clearance ([11]; i.v. 1 mg/kg) | In vivo terminal half-life ([11]; i.v. 1 mg/kg) | Off-target activity in ion channel, kinase, phosphatase and GPCR panels [12]
1 | CCC(=O)O[C@]1(C(=O)CCl)[C@@H](C)C[C@H]2[C@@H]3CCC4=CC(=O)C=C[C@]4(C)[C@@]3(F)[C@@H](O)C[C@@]21C [CP, Clobetasol Propionate] | reduce morning plasma cortisol significantly | higher levels of FKBP5 gene expression | – | – | – | – | – | – | – | – | – | – | – | – | – | –
2 | C[C@H](NC(=O)[C@H]1CCCO1)[C@H](Oc1ccc(C(=O)O[C@H]2CCCN(C(=O)[C@H]3COC(=O)C3)C2)cc1)c1ccc(C2CC2)cc1 [LEO 134310] | – | – | no significant interaction | > 35 (n = 1) mL/min/kg | > 18 (n = 1) mL/min/kg | 2.2 (2.1, 2.2) (n = 2) min | 3.3 ± 2.1 (n = 5) min | 3.8 (n = 1) min | 800 | 200 | > 30 (n = 1) mL/min/kg | 6 min and 4.4 ± 2.2 (n = 4) min | 15 | 470 ± 97 (n = 3) mL/min/kg | 11 ± 1.2 (n = 3) min | no off-target activity was identified
